Reference: US20180284095A1, “BIOMARKERS ASSOCIATED WITH LSD1 INHIBITORS AND USES THEREOF” (Oryzon Genomics, S.A., priority 2015, published 2018)

What was measured:
Assay type in all cases: in vivo, mouse
Conditions in all cases: brain day 5, male CD1 mice pool
TUBB2C = test: Microarray gene expression, brain of Hsd:ICR (CD1) mice, MTD study (Example 6), housekeeping gene
Experimental: (§1) Total RNA was extracted from samples using the RNeasy extraction kit (Qiagen). The quality and concentration of the RNA was analyzed using the Agilent 2100 bioanalyzer and NanoDrop™ ND-1000 (Thermo Scientific). Samples with RNA integrity number (RIN)<6.0 were discarded. Total RNA (0.5 μg) amplification and labelling with Cy3 or Cy5 was carried out using the Eberwein mRNA amplification procedure (Van Gelder et al, Proc Natl Acad Sci USA 1990, 87:1663-1667) employing the MessageAmp™ aRNA amplification kit from Ambion (Applied Biosystems) following the manufacturer's instructions with minor modifications. As hybridization controls, plant mRNAs were transcribed from a plasmid containing the Zea mays Xet (xyloglucan endo-transglycosylase) cDNA and from a plasmid containing the Zea mays Zmmyb42 cDNA, independently prepared Cy3 and Cy5 labelled aRNA from these two RNAs using the Eberwein mRNA amplification procedure (as disclosed in Cerdà et al, Gen Comp Endocrinol 2008, 156:470-481).
(§2) The Cy3- and Cy5-labelled cRNAs and spikes were combined and hybridized to the microarray described in Example 2.6 for 17 h at 60° C. using Agilent's gaskets G2534-60002, G2534A hybridization chambers and DNA Hybridization Oven G2545A, according to the manufacturer's instructions. More specifically, equal amounts of Cy3 and Cy5 labeled Xet aRNA as well as equal amounts of Cy3 and Cy5 labeled Zmmyb42 aRNA were spiked into each mixture hybridized to the array. Arrays were washed and raw data were obtained using Agilent's DNA Microarray Scanner G2505B and Feature Extraction software (v10.1). The raw fluorescence intensity data were processed using applicant's proprietary software, and consists in the following operations:
(§3) Data normalization was carried out by an improved version of the nonlinear Q-splines normalization method (Workman et al., Genome Biol 2002, 3(9):research0048.1-0048.16). Normalization results were presented graphically as MA plots, as first described by Dudoit et al (Dudoit et al, Statistica Sinica, 2002, 12:111-139). Each point corresponds to a probe of the DNA array. M values (vertical axis) are the log-differential expression ratios. A values (horizontal axis) are the log-intensities of the spots. M and A are calculated from the Cy5 and Cy3 intensity values as of each spot. The DNA Array data is normalized using an improved version of non-linear Q-Splines normalization described by Workman et al., Genome Biol 2002, 3(9):research0048.1-0048.16. This process is useful to correct the deviation of the M values from the statistical assumption that most of the spots have M=0 in MA plots. […]. The data used to calculate the normalization fitting curve is the totality of the raw measurement dataset, excluding the signals for the probes for the spiked-in plant RNA controls and negative controls. In order to be able to normalize properly the data among all the experiments, the probe-set must include an important group of genes that should have no change (M=0) in the experiment. The normalization function is then applied to all the data, including controls.
(§4) Normalized and log-transformed data were used to calculate log 2 (sample/control) and Fold Change (FC) values. No background subtraction was applied to the signal intensity values during data processing, permitting robust selection of differentially expressed genes with low expression levels at the cost of potential sub-estimation of change when intensity levels are close to the array background level.
(§5) Male Hsd:ICR (CD1®) mice were maintained in air- and temperature-controlled cages with regular supply of water and food. A maximum of 3 mice were raised per cage. Three mice were assigned to each group. Before the first administration, each mouse was labeled and weighed. Test compounds were administered orally using 1 ml syringes using animal feeding needles proper for mice at 10 ml/kg as follows. […]

TUBB3 = test: as above
Experimental: as §1, §2, §3, §4, §5

S100A8 = test: Microarray gene expression, brain of Hsd:ICR (CD1) mice, MTD study (Example 6)
Experimental: as §1, §2, §3, §4, §5

S100A9 = test: as above
Experimental: as §1, §2, §3, §4, §5

[1] = 3 mg/kg oral x5 days vs vehicle
[2] = 10 mg/kg oral x5 days vs vehicle
[3] = 30 mg/kg oral x5 days vs vehicle
[4] = 100 mg/kg oral x5 days vs vehicle

| Substance | Hybridization signal sample_Cy5 TUBB2C (TUBB2C; 3 mg/kg oral x5 days) | log2 (sample/control) TUBB2C (TUBB2C; [1]) | Hybridization signal sample_Cy5 TUBB2C (TUBB2C; 10 mg/kg oral x5 days) | log2 (sample/control) TUBB2C (TUBB2C; [2]) | Hybridization signal sample_Cy5 TUBB2C (TUBB2C; 30 mg/kg oral x5 days) | log2 (sample/control) TUBB2C (TUBB2C; [3]) | Hybridization signal sample_Cy5 TUBB2C (TUBB2C; 100 mg/kg oral x5 days) | log2 (sample/control) TUBB2C (TUBB2C; [4]) | Hybridization signal sample_Cy5 TUBB3 (TUBB3; 3 mg/kg oral x5 days) | log2 (sample/control) TUBB3 (TUBB3; [1]) | Hybridization signal sample_Cy5 TUBB3 (TUBB3; 10 mg/kg oral x5 days) | log2 (sample/control) TUBB3 (TUBB3; [2]) | Hybridization signal sample_Cy5 TUBB3 (TUBB3; 30 mg/kg oral x5 days) | log2 (sample/control) TUBB3 (TUBB3; [3]) | Hybridization signal sample_Cy5 TUBB3 (TUBB3; 100 mg/kg oral x5 days) | log2 (sample/control) TUBB3 (TUBB3; [4]) | Hybridization signal sample_Cy5 S100A8 (S100A8; 3 mg/kg oral x5 days) | log2 (sample/control) S100A8 (S100A8; [1]) | Hybridization signal sample_Cy5 S100A8 (S100A8; 10 mg/kg oral x5 days) | log2 (sample/control) S100A8 (S100A8; [2]) | also measured |
| --- | --- | --- | --- | --- | --- | --- | --- | --- | --- | --- | --- | --- | --- | --- | --- | --- | --- | --- | --- | --- | --- |
| (+) 5-((((trans)-2-(4-(benzyloxy)phenyl)cyclopropyl)amino)methyl)-1,3,4-oxadiazol-2-amine [Compound 2] | 5746.61 | 0.1908 | 5742.06 | 0.1179 | 6326.04 | 0.1798 | 3724.28 | −0.3983 | 3650.69 | 0.09458 | 3706.64 | −0.1239 | 4409.6 | −0.002033 | 2253.74 | −0.4338 | 126.363 | −0.1015 | 69.9912 | −1.156 | Hybridization signal sample_Cy5 S100A8 (S100A8; 30 mg/kg oral x5 days): 80.188; log2 (sample/control) S100A8 (S100A8; [3]): −1.029; Hybridization signal sample_Cy5 S100A8 (S100A8; 100 mg/kg oral x5 days): 39.3591; log2 (sample/control) S100A8 (S100A8; [4]): −1.921; Hybridization signal sample_Cy5 S100A9 (S100A9; 3 mg/kg oral x5 days): 291.855; log2 (sample/control) S100A9 (S100A9; [1]): −0.2512; Hybridization signal sample_Cy5 S100A9 (S100A9; 10 mg/kg oral x5 days): 117.175; log2 (sample/control) S100A9 (S100A9; [2]): −1.515; Hybridization signal sample_Cy5 S100A9 (S100A9; 30 mg/kg oral x5 days): 149.542; log2 (sample/control) S100A9 (S100A9; [3]): −1.285; Hybridization signal sample_Cy5 S100A9 (S100A9; 100 mg/kg oral x5 days): 45.3442; log2 (sample/control) S100A9 (S100A9; [4]): −2.876 |
| (−) 5-((((trans)-2-(4-(benzyloxy)phenyl)cyclopropyl)amino)methyl)-1,3,4-oxadiazol-2-amine [Compound 1] | 5008.03 | −0.03216 | 3965.09 | −0.309 | 5060.07 | 0.03544 | 5579.26 | 0.0424 | 3553.16 | −0.1852 | 2424.61 | −0.5964 | 2911.46 | −0.1102 | 3667.46 | −0.02579 | 55.2994 | −1.452 | 39.6385 | −1.81 | Hybridization signal sample_Cy5 S100A8 (S100A8; 30 mg/kg oral x5 days): 40.5977; log2 (sample/control) S100A8 (S100A8; [3]): −1.859; Hybridization signal sample_Cy5 S100A8 (S100A8; 100 mg/kg oral x5 days): 40.4596; log2 (sample/control) S100A8 (S100A8; [4]): −1.786; Hybridization signal sample_Cy5 S100A9 (S100A9; 3 mg/kg oral x5 days): 97.9225; log2 (sample/control) S100A9 (S100A9; [1]): −1.935; Hybridization signal sample_Cy5 S100A9 (S100A9; 10 mg/kg oral x5 days): 46.2723; log2 (sample/control) S100A9 (S100A9; [2]): −2.962; Hybridization signal sample_Cy5 S100A9 (S100A9; 30 mg/kg oral x5 days): 45.4319; log2 (sample/control) S100A9 (S100A9; [3]): −2.9408; Hybridization signal sample_Cy5 S100A9 (S100A9; 100 mg/kg oral x5 days): 56.7063; log2 (sample/control) S100A9 (S100A9; [4]): −2.792 |
